Data as given in the NIST ThermoML archive (doi:10.1021/acs.jced.5b00385).

Conditions: Liquid, Vibrating tube method

COCCOC(C)=O [2-methoxyethyl ethanoate]
Conditions	mass density [kg/m3]
283.47 K, 100 kPa	1015.98
283.47 K, 1000 kPa	1016.6
283.47 K, 3000 kPa	1018.02
283.47 K, 5000 kPa	1019.43
283.47 K, 10000 kPa	1022.82
283.47 K, 20000 kPa	1029.33
283.47 K, 25000 kPa	1032.44
283.47 K, 30000 kPa	1035.47
283.47 K, 40000 kPa	1041.29
283.47 K, 50000 kPa	1046.81
283.47 K, 60000 kPa	1052.11
283.47 K, 70000 kPa	1057.33
283.47 K, 80000 kPa	1062.12
283.47 K, 100000 kPa	1071.34
283.48 K, 15000 kPa	1026.12
283.48 K, 90000 kPa	1066.8
293.45 K, 100 kPa	1005.18
293.45 K, 1000 kPa	1005.85
293.45 K, 3000 kPa	1007.33
293.45 K, 5000 kPa	1008.8
293.45 K, 10000 kPa	1012.42
293.45 K, 15000 kPa	1015.91
293.45 K, 20000 kPa	1019.32
293.45 K, 25000 kPa	1022.58
293.45 K, 30000 kPa	1025.8
293.45 K, 40000 kPa	1031.92
293.45 K, 50000 kPa	1037.72
293.45 K, 60000 kPa	1043.26
293.45 K, 70010 kPa	1048.51
293.45 K, 90000 kPa	1058.45
293.46 K, 80010 kPa	1053.61
293.46 K, 100000 kPa	1063.15
303.37 K, 100 kPa	993.64
303.37 K, 5000 kPa	997.55
303.37 K, 25000 kPa	1012.15
303.37 K, 90010 kPa	1049.67
303.38 K, 1000 kPa	994.33
303.38 K, 3000 kPa	995.95
303.38 K, 10000 kPa	1001.38
303.38 K, 15000 kPa	1005.07
303.38 K, 20000 kPa	1008.68
303.38 K, 30000 kPa	1015.48
303.38 K, 40000 kPa	1021.92
303.38 K, 50000 kPa	1027.99
303.38 K, 60000 kPa	1033.79
303.38 K, 70000 kPa	1039.34
303.38 K, 80000 kPa	1044.62
303.38 K, 100000 kPa	1054.53
313.28 K, 25000 kPa	1002.26
313.29 K, 100 kPa	982.6
313.29 K, 20000 kPa	998.59
313.3 K, 1000 kPa	983.35
313.3 K, 3000 kPa	985.09
313.3 K, 5000 kPa	986.8
313.3 K, 10000 kPa	990.88
313.3 K, 15000 kPa	994.81
313.3 K, 30000 kPa	1005.78
313.3 K, 40000 kPa	1012.55
313.3 K, 50000 kPa	1018.92
313.3 K, 60000 kPa	1024.91
313.3 K, 70000 kPa	1030.73
313.3 K, 80000 kPa	1036.18
313.3 K, 90000 kPa	1041.42
313.3 K, 100000 kPa	1046.43
323.14 K, 100 kPa	971.53
323.14 K, 1000 kPa	972.34
323.14 K, 3000 kPa	974.16
323.15 K, 5000 kPa	975.96
323.15 K, 10000 kPa	980.29
323.15 K, 15000 kPa	984.47
323.15 K, 20000 kPa	988.47
323.15 K, 25000 kPa	992.34
323.15 K, 70000 kPa	1022.15
323.15 K, 80000 kPa	1027.84
323.15 K, 90000 kPa	1033.26
323.15 K, 100000 kPa	1038.48
323.16 K, 30000 kPa	996.08
323.16 K, 40000 kPa	1003.14
323.16 K, 50000 kPa	1009.8
323.16 K, 60000 kPa	1016.1
333.01 K, 100 kPa	960.32
333.01 K, 1000 kPa	961.21
333.01 K, 3000 kPa	963.17
333.01 K, 50000 kPa	1000.75
333.01 K, 60000 kPa	1007.3
333.02 K, 5000 kPa	965.08
333.02 K, 10000 kPa	969.69
333.02 K, 15000 kPa	974.13
333.02 K, 20000 kPa	978.36
333.02 K, 25000 kPa	982.46
333.02 K, 30000 kPa	986.35
333.02 K, 40000 kPa	993.79
333.02 K, 70000 kPa	1013.7
333.02 K, 80000 kPa	1019.56
333.02 K, 90000 kPa	1025.22
333.02 K, 100000 kPa	1030.6
342.87 K, 1000 kPa	949.88
342.88 K, 100 kPa	948.92
342.88 K, 3000 kPa	951.95
342.89 K, 5000 kPa	953.98
342.89 K, 10000 kPa	958.88
342.89 K, 15000 kPa	963.56
342.89 K, 20000 kPa	968.04
342.89 K, 25000 kPa	972.33
342.9 K, 30000 kPa	976.44
342.9 K, 40000 kPa	984.26
342.9 K, 50000 kPa	991.52
342.9 K, 60000 kPa	998.35
342.9 K, 70000 kPa	1005.1
342.9 K, 80010 kPa	1011.23
342.9 K, 90000 kPa	1017.07
342.9 K, 100000 kPa	1022.63
352.77 K, 10000 kPa	948.28
352.77 K, 15000 kPa	953.26
352.77 K, 20000 kPa	958
352.78 K, 25000 kPa	962.53
352.78 K, 30000 kPa	966.88
352.78 K, 40000 kPa	975.07
352.78 K, 50000 kPa	982.69
352.78 K, 60000 kPa	989.8
352.79 K, 100 kPa	937.57
352.79 K, 1000 kPa	938.6
352.79 K, 3000 kPa	940.86
352.79 K, 5000 kPa	943.03
352.79 K, 70000 kPa	996.7
352.79 K, 80000 kPa	1003.07
352.79 K, 90000 kPa	1009.1
352.79 K, 100000 kPa	1014.88
362.64 K, 100 kPa	926.12
362.64 K, 1000 kPa	927.21
362.64 K, 3000 kPa	929.6
362.64 K, 5000 kPa	931.91
362.64 K, 15000 kPa	942.8
362.64 K, 50000 kPa	973.78
362.65 K, 10000 kPa	937.52
362.65 K, 20000 kPa	947.84
362.65 K, 25000 kPa	952.6
362.65 K, 30000 kPa	957.19
362.65 K, 40000 kPa	965.79
362.65 K, 60000 kPa	981.22
362.65 K, 70000 kPa	988.32
362.65 K, 80000 kPa	994.92
362.65 K, 90000 kPa	1001.16
362.65 K, 100000 kPa	1007.15
